Results from patent publication US5665735A, “Unbridged bis-aryl carbinol derivatives compositions and methods of use” (Schering Corporation, priority 1995, dated 1997).
Like-named read-outs stand apart in the source and are kept apart here.

Key:
[1] = system: histamine-induced bronchospasm; test: Agonist-induced bronchospasm in guinea pigs, histamine (in vivo, oral); design: species or system guinea pig (male Hartley)
Description: (§1) In Vivo Studies: Agonist-Induced Responses--Spasmogen-Induced Bronchospasm in Guinea Pigs
(§2) Male Hartley guinea pigs (450-550 g) were obtained from Charles River Breeding Laboratories. The animals were fasted overnight and the following day were anesthetized with 0.9 mL/kg i.p. of dilaurethane (containing 0.1 g/mL diallylbarbituric acid, 0.4 g/ml ethylurea and 0.4 g/ml urethane). The left jugular vein was cannulated for the administration of compounds. The trachea was cannulated and the animals were ventilated by a rodent respirator at 55 strokes/min. with a stroke volume of 4 mL. A side arm to the tracheal cannula was connected to a pressure transducer to obtain a continuous measure of inflation pressure. Bronchoconstriction was measured as the percent increase in inflation pressure that peaked within 5 min. after challenge with spasmogen. […] Each animal was challenged with only a single spasmogen. The effect of a compound on the bronchospasm is expressed as a percent inhibition of the increase in inflation pressure compared to the, increase in a control group.

PAF-induced bronchospasm = test: Agonist-induced bronchospasm in guinea pigs, PAF (in vivo, oral); design: species or system guinea pig (male Hartley)
Description: as §1, §2

[2] = system: PAF-induced platelet aggregation; test: Platelet aggregation assay: inhibition of platelet aggregation induced by PAF (in vitro); format: cell-based; settings: Homo sapiens; for IC50: read-out: PAF antagonism (in vitro) IC50; for inhibition at 0.12 µM: concentration 0.12 μM; for inhibition at 0.25 µM: concentration 0.25 μM; for inhibition at 0.5 µM: concentration 0.5 μM; for inhibition at 0.125 µM: concentration 0.125 μM; for inhibition at 5 µM: concentration 5 μM; for inhibition at 50 µM: concentration 50 μM; for inhibition at 2.5 µM: concentration 2.5 μM
Description: A. In Vitro Studies--Platelet Aggregation Assay
Platelet-activating factor (PAF) causes aggregation of platelets by a receptor-mediated mechanism. Therefore, PAF-induced platelet aggregation provides a simple and convenient assay to screen compounds for PAF antagonism.
Blood was centrifuged at 110×g for 15 min. and the supernatant platelet-rich plasma (PRP) carefully transferred into a polypropylene tube. Platelet-poor-plasma (PPP) was prepared by centrifuging PRP at 12,000×g for 2 min. PRP was used within 3 hr. of drawing the blood.
PAF was dissolved in chloroform:methanol (1:1, v/v) at a concentration of 2 mg/mL and stored at -70° C. An aliquot of this solution was transferred to a polypropylene tube and […] under a flow of nitrogen gas. […] The solution was sonicated for 5 min. This stock solution was further diluted to appropriate concentrations in Hepes-saline-BSA buffer. Collagen and adenosine diphosphate (ADP) were purchased as solutions. Test compounds were initially dissolved in dimethyl sulfoxide (DMSO) at a concentration of 50 mM and then further diluted in Hepes-saline-BSA buffer to achieve appropriate concentrations.
When an aggregating agent such as PAF is added to PRP, platelets aggregate. An aggregometer quantifies this aggregation by measuring and comparing light (infra-red) transmission through PPP and PRP. Aggregation assays were performed using a dual-channel aggregometer. PRP (0.45 ml) in aggregometer cuvettes was continually stirred (37° C.). Solutions (50 μL) of test compounds or vehicle were added to the PRP and, after incubation for 2 min., 10-15 μL aliquots of PAF solution were added to achieve a final concentration of 1-5×10^-8 M. In different experiments the aggregatory response was kept within a set limit by varying the concentration of PAF. Incubations were continued until the increase in light transmission reached a maximum (usually 2 min.). This increase in light transmission reflecting platelet aggregation is transmitted to a computer. The computer calculates the slope of transmission change, thus providing the rate of aggregation. Values for inhibition were calculated by comparing rates of aggregation obtained in the absence and the presence of the compound. For each experiment, a standard PAF antagonist such as 8-chloro-6,11-dihydro-11-(1-acetyl-4-piperidylidene)-5H-benzo[5,6]cyclohepta[1,2-b]pyridine was used as a positive control.
Compounds that inhibit PAF-induced aggregation were tested against several other aggregating agents including collagen (0.2 mg/ml) and ADP (2 μM).

SMILES | PAF agonist bronchospasm % inhibition (PAF-induced bronchospasm; 3 mg/kg) | inhibition at 0.25 µM [2] | inhibition at 0.5 µM [2] | inhibition at 5 µM [2] | inhibition at 50 µM [2] | also measured
CCOC(=O)N1CCC(=C2c3ccc(Cl)cc3CCc3cccnc32)CC1 [Compound A, reference compound] | – | – | – | – | – | Histamine agonist bronchospasm % inhibition ([1]; 1 mg/kg): > 50%; PAF agonist bronchospasm % inhibition (PAF-induced bronchospasm; 10 mg/kg): < 50%; IC50 [2]: > 50000 nM
CC(=O)N1CCC(=C2c3ccc(Cl)cc3CCc3cccnc32)CC1 [Compound B, reference compound] | 4% | – | – | – | – | Histamine agonist bronchospasm % inhibition ([1]; 3 mg/kg): 48%; IC50 ([2]; in vitro, known compounds, for purposes of comparison): 610 nM
O=C(c1cc[n+]([O-])cc1)N1CCC(=C2c3ccc(Cl)cc3CCc3cccnc32)CC1 [Compound C, reference compound] | – | – | – | – | – | PAF agonist bronchospasm % inhibition (duration) (PAF-induced bronchospasm; 5 mg/kg, time 4 (unit not given)): 37%; PAF agonist bronchospasm % inhibition (duration) (PAF-induced bronchospasm; 5 mg/kg, time 8 (unit not given)): 12%
CC(=O)N1CCC(=C2c3ccc(Cl)cc3CCc3cccnc32)CC1 [Compound D, reference compound] | – | – | – | – | – | PAF agonist bronchospasm % inhibition (duration) (PAF-induced bronchospasm; 15 mg/kg, time 4 (unit not given)): 61%; PAF agonist bronchospasm % inhibition (duration) (PAF-induced bronchospasm; 15 mg/kg, time 8 (unit not given)): 32%
O=C(c1cc[n+]([O-])cc1)N1CCC(C(O)(c2ccccn2)c2ccccn2)CC1 [Formula 1.0A1] | 93% | 68% | 97% | – | – | inhibition at 0.12 µM [2]: 28%
O=C(c1cc[n+]([O-])cc1)N1CCC(C(O)(c2ccc(Cl)cc2)c2ccccn2)CC1 (centres unmarked) [Formula 1.0A3] | 87% | 69% | 88% | 95% | 92% | inhibition at 0.063 µM ([2]; concentration 0.063 μM): 41%; inhibition at 0.125 µM [2]: 53%
[O-][n+]1ccc(CN2CCC(C(O)(c3ccccc3)c3cccs3)CC2)cc1 (centres unmarked) [Formula 1.0A5] | 20% | 41% | 59% | – | – | inhibition at 0.12 µM [2]: 35%; inhibition at 1.2 µM ([2]; concentration 1.2 μM): 81%; inhibition at 2.5 µM [2]: 91%
O=C(c1cc[n+]([O-])cc1)N1CCC(C(O)(c2ccc(Cl)cc2)c2cccs2)CC1 (centres unmarked) [Formula 1.0A8] | 0% | – | 74% | 100% | 89% | inhibition at 1.25 µM ([2]; concentration 1.25 μM): 26%; inhibition at 2.5 µM [2]: 55%
[O-][n+]1ccc(CN2CCC(C(O)(c3ccc(Cl)cc3)c3cccs3)CC2)cc1 (centres unmarked) [Formula 1.0A9] | – | – | – | 24% | 100% | –
O=C(c1cc[n+]([O-])cc1)N1CCC(C(O)(c2ccc(Cl)cc2)c2nccs2)CC1 (stereo not drawn) [Formula 1.0A10, α-(4-chlorophenyl)-1-(4-pyridinylcarbonyl)-α-(2-thiazolyl)-4-piperidinemethanol N^1-oxide] | 93% | 67% | 88% | 92% | 86% | Histamine agonist bronchospasm % inhibition ([1]; 10 mg/kg): 12%; PAF agonist bronchospasm % inhibition (duration) (PAF-induced bronchospasm; 4 mg/kg, time 6 (unit not given)): 99%; inhibition at 0.125 µM [2]: 52%
[O-][n+]1ccc(CN2CCC(C(O)(c3ccc(Cl)cc3)c3nccs3)CC2)cc1 (centres unmarked) [Formula 1.0A11] | – | – | 7% | 76% | 83% | –
O=C(c1cc[n+]([O-])cc1)N1CCC(C(O)(c2ccccn2)c2nccs2)CC1 (centres unmarked) [Formula 1.0A12] | – | 47% | 58% | 98% | 100% | –
